Calls of active or inactive are those of the source. The rule behind the calls is not given here.
Legend:
[1] = molecular target: T1, Tyrosine-protein kinase Blk (Homo sapiens, UniProt P51451); experiment: Displacement of competitive tracer from BLK (unknown origin) assessed as target occupancy at […] preincubated for 15 mins measured for 24 hrs relative to control; conditions: dose 1.5 µM
[2] = Inhibition of EGF-stimulated AP-1 activation in human ME-180 cells by EGFR-based reporter assay; format: cell-based
[3] = molecular target: Sodium-dependent dopamine transporter (Homo sapiens) (UniProt Q01959); experiment: Displacement of [3H]BTCP from recombinant human dopamine transporter DAT at 10 uM incubated for 120 mins by radiometric scintillation assay relative to control
[4] = Drug concentration in plasma of collagen-induced arthritis Lewis rat model 30 mg/kg/day, po measured after 6 hrs post-collection of plasma; format: ADME, organism-based
[5] = molecular target: T2, Tyrosine-protein kinase ITK/TSK (Homo sapiens) (UniProt Q08881); experiment: Displacement of competitive tracer from ITK (unknown origin) assessed as target occupancy at […] preincubated for 15 mins measured for 1 hr relative to control; conditions: dose 1.5 µM
T2 sequence (whole entry): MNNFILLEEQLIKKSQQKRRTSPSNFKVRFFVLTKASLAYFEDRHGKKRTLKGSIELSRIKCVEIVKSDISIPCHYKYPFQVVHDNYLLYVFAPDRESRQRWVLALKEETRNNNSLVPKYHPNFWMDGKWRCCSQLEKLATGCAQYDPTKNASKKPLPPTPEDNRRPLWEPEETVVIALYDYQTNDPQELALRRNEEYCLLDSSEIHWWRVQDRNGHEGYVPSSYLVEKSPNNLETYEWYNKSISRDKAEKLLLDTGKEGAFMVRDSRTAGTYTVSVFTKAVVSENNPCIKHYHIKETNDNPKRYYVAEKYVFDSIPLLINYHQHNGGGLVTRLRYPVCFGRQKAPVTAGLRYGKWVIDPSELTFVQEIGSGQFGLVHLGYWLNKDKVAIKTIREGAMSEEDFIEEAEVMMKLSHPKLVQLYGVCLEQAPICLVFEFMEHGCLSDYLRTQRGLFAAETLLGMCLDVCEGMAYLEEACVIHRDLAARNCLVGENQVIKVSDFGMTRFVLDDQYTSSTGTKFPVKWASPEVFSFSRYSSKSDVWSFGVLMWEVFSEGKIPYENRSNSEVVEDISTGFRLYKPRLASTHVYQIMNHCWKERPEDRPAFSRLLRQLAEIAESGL

[6] = molecular target: Adenosine receptor A3 (Homo sapiens) (UniProt P0DMS8); experiment: Displacement of [125I]AB-MECA from recombinant human Adenosine receptor A3 at 10 uM incubated for 120 mins by radiometric scintillation assay relative to control
[7] = molecular target: T1, Tyrosine-protein kinase Blk; experiment: Displacement of competitive tracer from BLK (unknown origin) assessed as target occupancy at […] preincubated for 15 mins measured for 6 hrs relative to control; conditions: dose 1.5 µM
[8] = molecular target: T2, Tyrosine-protein kinase ITK/TSK (Homo sapiens); experiment: Displacement of competitive tracer from ITK (unknown origin) assessed as target occupancy at […] preincubated for 15 mins measured for 6 hrs relative to control; conditions: dose 1.5 µM
[9] = Toxicity in female Beagle dog assessed as weight loss up to 400 mg/kg/day qd for 12 weeks; format: organism-based, Canis lupus familiaris; conditions: in vivo, 2016 h
[10] = Toxicity in male Beagle dog assessed as drug tolerance up to 400 mg/kg/day qd for 12 weeks; format: organism-based, Canis lupus familiaris; conditions: in vivo, 2016 h
[11] = molecular target: T3, Cytoplasmic tyrosine-protein kinase BMX (Homo sapiens) (UniProt P51813); experiment: Displacement of competitive tracer from BMX (unknown origin) assessed as target occupancy at […] preincubated for 15 mins measured for 1 hr relative to control; conditions: dose 1.5 µM
T3 sequence (whole entry): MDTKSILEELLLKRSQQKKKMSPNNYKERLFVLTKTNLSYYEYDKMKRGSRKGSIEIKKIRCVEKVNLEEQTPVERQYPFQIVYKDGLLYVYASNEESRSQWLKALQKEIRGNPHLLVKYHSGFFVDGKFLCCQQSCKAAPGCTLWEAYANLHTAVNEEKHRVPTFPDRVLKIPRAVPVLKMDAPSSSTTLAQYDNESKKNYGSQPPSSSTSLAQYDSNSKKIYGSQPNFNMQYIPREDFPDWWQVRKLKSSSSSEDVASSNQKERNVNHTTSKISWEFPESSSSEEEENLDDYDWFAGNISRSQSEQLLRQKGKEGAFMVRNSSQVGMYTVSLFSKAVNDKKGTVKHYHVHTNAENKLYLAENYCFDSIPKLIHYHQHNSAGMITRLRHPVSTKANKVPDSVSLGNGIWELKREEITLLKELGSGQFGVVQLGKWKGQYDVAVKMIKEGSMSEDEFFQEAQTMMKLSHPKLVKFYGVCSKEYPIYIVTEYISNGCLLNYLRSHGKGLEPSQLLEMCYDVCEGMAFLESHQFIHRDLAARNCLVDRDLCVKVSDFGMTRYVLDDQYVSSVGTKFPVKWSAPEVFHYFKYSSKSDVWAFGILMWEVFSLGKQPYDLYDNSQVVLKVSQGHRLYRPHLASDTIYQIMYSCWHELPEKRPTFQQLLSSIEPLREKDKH

[12] = molecular target: T3, Cytoplasmic tyrosine-protein kinase BMX (Homo sapiens); experiment: Displacement of competitive tracer from BMX (unknown origin) assessed as target occupancy at […] preincubated for 15 mins measured for 24 hrs relative to control; conditions: dose 1.5 µM
[13] = molecular target: T2, Tyrosine-protein kinase ITK/TSK (Homo sapiens); experiment: Displacement of competitive tracer from ITK (unknown origin) assessed as target occupancy at […] preincubated for 15 mins measured for 24 hrs relative to control; conditions: dose 1.5 µM
Rattus norvegicus = experiment: Antiarthritic activity in collagen-induced arthritis Lewis rat model assessed as inhibition of ankle diameter administered orally daily for 10 days; format: functional, organism-based; conditions: dose 3-30 mg/kg/day, route po, time 10.0 day, DDE = dose-dependent effect
[14] = Drug concentration in plasma of collagen-induced arthritis Lewis rat model 3 mg/kg/day, po measured after 6 hrs post-collection of plasma; format: ADME, organism-based
[15] = Mutagenicity in Salmonella typhimurium by Ames test; format: toxicity; conditions: salmonella enterica subsp. enterica serovar typhimurium
[16] = Inhibition of IL-2 production in TCR-stimulated T-cells in human whole blood; format: functional, tissue-based; conditions: T-cell
Canis lupus familiaris = experiment: Effect on canine pemphigus foliaceous dog model assessed as reduction in lesion at 8 to 21 mg/kg measured for 2 weeks; format: functional, organism-based; conditions: dose lower 8.0 mg/kg, dose upper […]
[17] = Drug concentration in plasma of collagen-induced arthritis Lewis rat model 3 mg/kg/day, po measured after 12 hrs post-collection of plasma; format: ADME, organism-based; conditions: in vivo, BLD = below limit of detection
[18] = Drug concentration in plasma of collagen-induced arthritis Lewis rat model 30 mg/kg/day, po measured after 12 hrs post-collection of plasma; format: ADME, organism-based

T1 sequence (P51451 2-505 limits assumed): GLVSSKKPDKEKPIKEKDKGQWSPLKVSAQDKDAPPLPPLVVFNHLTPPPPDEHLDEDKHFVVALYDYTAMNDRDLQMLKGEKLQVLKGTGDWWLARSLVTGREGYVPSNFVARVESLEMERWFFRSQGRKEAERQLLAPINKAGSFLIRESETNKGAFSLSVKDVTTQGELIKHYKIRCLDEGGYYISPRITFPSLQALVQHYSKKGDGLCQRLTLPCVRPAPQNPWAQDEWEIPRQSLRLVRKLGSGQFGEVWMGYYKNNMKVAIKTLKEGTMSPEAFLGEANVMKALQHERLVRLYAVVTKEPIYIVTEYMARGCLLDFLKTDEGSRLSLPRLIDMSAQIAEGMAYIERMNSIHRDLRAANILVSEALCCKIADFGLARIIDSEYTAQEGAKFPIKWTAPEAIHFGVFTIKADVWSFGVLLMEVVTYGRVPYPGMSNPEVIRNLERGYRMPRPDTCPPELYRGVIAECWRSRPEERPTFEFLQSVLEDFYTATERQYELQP
Sequence of Adenosine receptor A3 (Homo sapiens) (P0DMS8 whole entry): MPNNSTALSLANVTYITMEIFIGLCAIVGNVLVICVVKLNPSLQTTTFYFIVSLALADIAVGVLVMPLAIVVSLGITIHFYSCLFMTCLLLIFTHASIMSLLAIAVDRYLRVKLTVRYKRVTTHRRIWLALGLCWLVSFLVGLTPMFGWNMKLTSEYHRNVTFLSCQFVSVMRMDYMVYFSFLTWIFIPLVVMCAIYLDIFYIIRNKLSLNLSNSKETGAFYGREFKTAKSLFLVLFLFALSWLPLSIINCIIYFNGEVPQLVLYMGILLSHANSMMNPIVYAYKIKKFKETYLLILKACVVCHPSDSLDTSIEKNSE
Sequence of Sodium-dependent dopamine transporter (Homo sapiens) (Q01959 whole entry): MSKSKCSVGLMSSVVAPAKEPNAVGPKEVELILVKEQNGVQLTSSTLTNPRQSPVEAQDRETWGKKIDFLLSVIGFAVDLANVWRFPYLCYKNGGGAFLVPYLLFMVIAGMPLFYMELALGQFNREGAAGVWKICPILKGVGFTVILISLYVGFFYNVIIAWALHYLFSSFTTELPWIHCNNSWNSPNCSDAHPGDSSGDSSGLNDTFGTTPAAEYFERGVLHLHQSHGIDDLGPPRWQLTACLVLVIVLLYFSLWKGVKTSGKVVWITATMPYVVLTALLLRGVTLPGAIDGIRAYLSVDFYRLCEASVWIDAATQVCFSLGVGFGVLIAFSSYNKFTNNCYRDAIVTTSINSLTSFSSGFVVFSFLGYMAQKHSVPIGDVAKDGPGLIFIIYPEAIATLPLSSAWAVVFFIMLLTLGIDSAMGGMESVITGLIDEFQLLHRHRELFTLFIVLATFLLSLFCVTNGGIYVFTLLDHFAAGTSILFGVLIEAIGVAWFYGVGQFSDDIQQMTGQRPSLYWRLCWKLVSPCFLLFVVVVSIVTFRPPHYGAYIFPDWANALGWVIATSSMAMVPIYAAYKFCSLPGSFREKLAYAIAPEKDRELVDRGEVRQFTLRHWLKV

Q: Which Activity [1] does the source give for `CC(C)(C)/C=C(\C#N)C(=O)N1CCC[C@@H](n2nc(-c3ccc(Oc4ccccc4)cc3F)c3c(N)ncnc32)C1` [ATUZABRUTINIB] here?
A: 1%

Q: What about the IC50 [2] of the same compound?
A: > 5 µM

Q: What about the inhibition [3] of the same compound?
A: > 50%

Q: What about the concentration at 6 h [4] of the same compound?
A: 111 ng/mL

Q: What about the Activity [5] of the same compound?
A: 82%

Q: What about the inhibition [6] of the same compound?
A: > 50%

Q: And the Activity [7]?
A: 44%

Q: What about the Activity [8] of the same compound?
A: 28%

Q: And the Activity [9]?
A: Toxic

Q: What about the Activity [10] of the same compound?
A: Non-Toxic

Q: And the Activity [11]?
A: 90%

Q: What about the Activity [12] of the same compound?
A: 69%

Q: And the Activity [13]?
A: -7%

Q: What about the Activity (Rattus norvegicus) of the same compound?
A: Dde

Q: What about the concentration at 6 h [14] of the same compound?
A: 5.2 ng/mL

Q: And the Activity [15]?
A: Non-Toxic

Q: And the IC50 [16]?
A: > 5 µM

Q: And the Activity (Canis lupus familiaris)?
A: Active

Q: What about the Cp [17] of the same compound?
A: Bld

Q: What about the concentration at 12 h [18] of the same compound?
A: 51.8 ng/mL

— ChEMBL document CHEMBL5104103 (J Med Chem, 2022)
